# Reference: patent US20240408106A1, “BI-FUNCTIONAL COMPOUNDS AND METHODS FOR TARGETED UBIQUITINATION OF ANDROGEN RECEPTOR” (MONTELINO THERAPEUTICS, INC., priority 2021, published 2024)
# System: human prostate cancer cell line, 22Rv1-Enz^R
# Test: 22Rv1-Enz^R cell proliferation assay
# Assay type: cell-based
# Details: half maximal growth inhibition constant, 22Rv1-Enz^R cells, 6-day culture with cell media changed every 24 hours, read-out: 22Rv1-Enz^R proliferation assay GIC50
# Method: The human prostate cancer cell line, 22Rv1 has been reported to express a high level of AR-V7. According to one procedure, 22Rv1 is seeded at 50,000 cells/well on a 24-well plate in quadruplicate and treated with test compounds in concentrations ranging up to 20 μM for four days. Standard culture media is RPMI-1640 supplemented with 10% fetal bovine serum. The test compound initially is dissolved in DMSO at 50 mM. This stock solution is then diluted as needed for the indicated concentrations. At the end of the four-day period, cells are harvested using 1% trypsin and counted using an automated cell counter.
# Selected compounds may be tested in the human prostate cancer cell line, 22Rv1-Enz^R, as described in Geun Taek Lee et al., Molecular Cancer Therapeutics, 20:490-9 (2021). These procedures are similar to that described in Experimental Example 1, above, except that the assay conditions are a 6-day culture with cell media changed every 24 hours.
# In the following Table (half maximal growth inhibition constant, GIC50): (+)-GIC50<200 μM; (++)-GIC50<100 μM; (+++)-GIC50<10 μM.
row,Structure (SMILES),IC50 [µM]
1,"Cc1ncsc1-c1ccc([C@H](C)NC(=O)[C@@H]2C[C@@H](O)CN2C(=O)[C@@H](NC(=O)CCC(=O)N2CCCC(NC(=O)COc3c(-c4csc(N5CCOCC5)n4)ccc(F)c3F)C2)C(C)(C)C)cc1 (stereo partly drawn) [Example 3, (2S,4R)-1-((2S)-2-(4-(3-(2-(2,3-difluoro-6-(2-morpholinothiazol-4-yl)phenoxy)acetamido)piperidin-1-yl)-4-oxobutanamido)-3,3-dimethylbutanoyl)-4-hydroxy-N-((S)-1-(4-(4-methylthiazol-5-yl)phenyl)ethyl)pyrrolidine-2-carboxamide]",< 10
2,"Cc1ncsc1-c1ccc([C@H](C)NC(=O)[C@@H]2C[C@@H](O)CN2C(=O)[C@@H](NC(=O)CCN2CCN(C(=O)COc3c(-c4csc(N5CCOCC5)n4)ccc(F)c3F)CC2)C(C)(C)C)cc1 [Example 2, (2S,4R)-1-((S)-2-(3-(4-(2-(2,3-difluoro-6-(2-morpholinothiazol-4-yl)phenoxy)acetyl)piperazin-1-yl)propanamido)-3,3-dimethylbutanoyl)-4-hydroxy-N-((S)-1-(4-(4-methylthiazol-5-yl)phenyl)ethyl) pyrrolidine-2-carboxamide]",< 100
3,"Cc1ncsc1-c1ccc([C@H](C)NC(=O)[C@@H]2C[C@@H](O)CN2C(=O)[C@@H](NC(=O)CCC(=O)N[C@H]2C[C@H](Oc3c(-c4csc(N5CCOCC5)n4)ccc(F)c3F)C2)C(C)(C)C)cc1 [Example 5, N1-((1r,3S)-3-(2,3-difluoro-6-(2-morpholinothiazol-4-yl)phenoxy)cyclobutyl)-N4-((S)-1-((2S,4R)-4-hydroxy-2-(((S)-1-(4-(4-methylthiazol-5-yl)phenyl)ethyl)carbamoyl)pyrrolidin-1-yl)-3,3-dimethyl-1-oxobutan-2-yl)succinamide]",< 100
4,"Cc1ncsc1-c1ccc([C@H](C)NC(=O)[C@@H]2C[C@@H](O)CN2C(=O)[C@@H](NC(=O)CN2CCN(C(=O)COc3c(-c4csc(N5CCOCC5)n4)ccc(F)c3F)CC2)C(C)(C)C)cc1 [Example 1, (2S,4R)-1-((S)-2-(2-(4-(2-(2,3-difluoro-6-(2-morpholinothiazol-4-yl)phenoxy)acetyl)piperazin-1-yl)acetamido)-3,3-dimethylbutanoyl)-4-hydroxy-N-((S)-1-(4-(4-methylthiazol-5-yl)phenyl)ethyl)pyrrolidine-2-carboxamide]",< 10

# Further lines, results first:
row,IC50 [µM],Structure (SMILES)
1,< 10,"Cc1ncsc1-c1ccc([C@H](C)NC(=O)[C@@H]2C[C@@H](O)CN2C(=O)[C@@H](NC(=O)CCCCn2nncc2CCOc2c(-c3csc(N4CCOCC4)n3)ccc(F)c2F)C(C)(C)C)cc1 [Example 4, (2S,4R)-1-((S)-2-(5-(5-(2-(2,3-difluoro-6-(2-morpholinothiazol-4-yl)phenoxy)ethyl)-1H-1,2,3-triazol-1-yl)pentanamido)-3,3-dimethylbutanoyl)-4-hydroxy-N-((S)-1-(4-(4-methylthiazol-5-yl)phenyl)ethyl)pyrrolidine-2-carboxamide]"
2,< 100,"COc1cc(C(=O)NCCN2CCN(C(=O)COc3c(-c4csc(N5CCOCC5)n4)ccc(F)c3F)CC2)ccc1NC(=O)[C@@H]1N[C@@H](CC(C)(C)C)[C@](C#N)(c2ccc(Cl)cc2F)[C@H]1c1cccc(Cl)c1F [Example 8, (2R,3S,4R,5S)-3-(3-chloro-2-fluorophenyl)-4-(4-chloro-2-fluorophenyl)-4-cyano-N-(4-((2-(4-(2-(2,3-difluoro-6-(2-morpholinothiazol-4-yl)phenoxy)acetyl)piperazin-1-yl)ethyl)carbamoyl)-2-methoxyphenyl)-5-neopentylpyrrolidine-2-carboxamide]"
3,< 200,"COc1cc(C(=O)NCC2CCN(C(=O)COc3c(-c4csc(N5CCOCC5)n4)ccc(F)c3F)CC2)ccc1NC(=O)[C@@H]1N[C@@H](CC(C)(C)C)[C@](C#N)(c2ccc(Cl)cc2F)[C@H]1c1cccc(Cl)c1F [Example 7, (2R,3S,4R,5S)-3-(3-chloro-2-fluorophenyl)-4-(4-chloro-2-fluorophenyl)-4-cyano-N-(4-(((1-(2-(2,3-difluoro-6-(2-morpholinothiazol-4-yl)phenoxy)acetyl)piperidin-4-yl)methyl)carbamoyl)-2-methoxyphenyl)-5-neopentylpyrrolidine-2-carboxamide]"
4,< 100,"COc1cc(C(=O)NCCOCCn2cc(CCOc3c(-c4csc(N5CCOCC5)n4)ccc(F)c3F)nn2)ccc1NC(=O)[C@@H]1N[C@@H](CC(C)(C)C)[C@](C#N)(c2ccc(Cl)cc2F)[C@H]1c1cccc(Cl)c1F [Example 10, (2R,3S,4R,5S)-3-(3-chloro-2-fluorophenyl)-4-(4-chloro-2-fluorophenyl)-4-cyano-N-(4-((2-(2-(4-(2-(2,3-difluoro-6-(2-morpholinothiazol-4-yl)phenoxy)ethyl)-1H-1,2,3-triazol-1-yl)ethoxy)ethyl)carbamoyl)-2-methoxyphenyl)-5-neopentylpyrrolidine-2-carboxamide]"
5,< 200,"COc1cc(C(=O)N2CCC(NC(=O)COc3c(-c4csc(N5CCOCC5)n4)ccc(F)c3F)CC2)ccc1NC(=O)[C@@H]1N[C@@H](CC(C)(C)C)[C@](C#N)(c2ccc(Cl)cc2F)[C@H]1c1cccc(Cl)c1F [Example 9, (2R,3S,4R,5S)-3-(3-chloro-2-fluorophenyl)-4-(4-chloro-2-fluorophenyl)-4-cyano-N-(4-(4-(2-(2,3-difluoro-6-(2-morpholinothiazol-4-yl)phenoxy)acetamido)piperidine-1-carbonyl)-2-methoxyphenyl)-5-neopentylpyrrolidine-2-carboxamide]"
